Assay results: patent US8377894B2, “Drug and food or drink for improving pancreatic functions” (Morinaga Milk Industry Co., Ltd., priority 2005, dated 2013)
Like-named read-outs stand apart in the source and are kept apart here.

Experiments:
[1] = tested on: db/db mice; test: Pancreatic tissue protecting action: number and maximum area of Langerhans islets in pancreatic sections of db/db mice, Test Example 2; format: in vivo; settings: for Maximum area of Langerhans islets relative to that observed in the negative test / Number of Langerhans islets relative to negative sample-administered mice: 1 μg, 43rd day of continuous administration; for The numbers of Langerhans islets in sections on 43rd day of administration / Maximum area of Langerhans islets on administration: male db/db mice, 1 μg orally once a day for 42 days; for The numbers of Langerhans islets in sections on 43rd day of administration: hematoxylin-eosin stained pancreatic sections; for Maximum area of Langerhans islets on administration: pancreatic sections
Protocol: The final DMSO concentration was adjusted to 0.2%. […] On the 43rd day of the continuous administration, the pancreas was extracted, divided into three portions of upstream, midstream and downstream from the duodenum side, and fixed with a formalin solution, and then paraffin blocks were prepared in a conventional manner. Section slides were prepared from the paraffin blocks, and subjected to hematoxylin-eosin staining. The numbers of Langerhans islets existing on the sections of the 3 position of the pancreas, and area of Langerhans islet having the maximum area on each section were measured by using an ocular micrometer on a microscope (“ECLIPSE E600”, NIKON CORP.).

[2] = tested on: db/db mice; settings: for Pancreatic function protecting effect: 0.1 μg/animal; for Pancreatic function protecting effect / Serum insulin level relative to that observed in the negative test: 43rd day of continuous administration; for Serum insulin level relative to that observed in the negative test: 1 μg/animal; for Serum insulin levels on 43rd day of administration: male db/db mice, ELISA
Protocol: This test was performed in order to evaluate the pancreatic endocrine gland cell function (insulin production ability) protecting action of a compound having the cyclolanostane skeleton by using db/db mice known as a model animal of pancreatic hypofunction or pancreatic tissue dysfunction.
In this test, 6-week old male db/db mice (purchased from Clea Japan, Inc.) were used. These mice were divided into groups, each consisting of 7 animals. Each test sample was dissolved in DMSO, and the concentration was adjusted to 0.1 or 1 μg/mL with physiological saline. The final DMSO concentration was adjusted to 0.2%. The pancreatic disorder model mice were orally administered with 1 mL of the test sample once a day everyday for 42 days with a sonde. The serum insulin level was measured on the 43rd day of the continuous administration by using Lbis insulin mouse ELISA kit (Shibayagi Co., Ltd).

[3] = 0.1 μg/animal orally once a day for 42 days
[4] = 1 μg/animal orally once a day for 42 days

SMILES	Maximum area of Langerhans islets relative to that observed in the negative test [1]	Number of Langerhans islets relative to negative sample-administered mice [1]	The numbers of Langerhans islets in sections on 43rd day of administration [1]	Maximum area of Langerhans islets on administration [1]	Pancreatic function protecting effect [2]	Serum insulin level relative to that observed in the negative test [2]	Serum insulin levels on 43rd day of administration [2, 3]	Serum insulin levels on 43rd day of administration [2, 4]
CC(C)CCCC(C)C1CCC2(C)C3CCC4C(C)(C)C(O)CCC45CC35CCC12C (stereo not shown) [Test sample 1, 9,19-cyclolanostan-3-ol]	1.8 times	149%	60.0 ± 14.8 piece	78.6 ± 3.3 × 10^3 μm^2	any significant pancreatic function protecting effect was not observed	160%	1.74 ± 0.26 ng/mL	3.19 ± 0.78 ng/mL
C=C(CCC(C)C1CCC2(C)C3CCC4C(C)(C)C(O)CCC45CC35CCC12C)C(C)C (stereo not shown) [Test sample 2, 24-methylene-9,19-cyclolanostan-3-ol]	3.1 times	148%	59.6 ± 11.6 piece	140.0 ± 102.8 × 10^3 μm^2	any significant pancreatic function protecting effect was not observed	170%	1.94 ± 0.56 ng/mL	3.39 ± 1.35 ng/mL
